{"source": "patent US8685730B2", "about": "“Methods and devices for differentiating pluripotent stem cells into cells of the pancreatic lineage” (Wisconsin Alumni Research Foundation, priority 2006, dated 2014)", "type_in_all_cases": "cell-based, human", "key": {"[1]": {"system": "hESCs", "assay": "Quantitative RT-PCR (QPCR) of transcript accumulation in hESCs differentiated through Stages 1-4", "method": "Culture of undifferentiated hESCs or human iPS (hiPS) cells. Cell lines used were NIH-approved H1 (WA01) and H9 (WA09) between passage 18 and 42, though hiPS cell lines derived from iPS (IMR-90)-4-MCB-1, iPS (Foreskin)-1-MCB-1, and DF 19-9-7T-MCB-01 may be used, as well as mouse ES cells.\nChemically defined medium comprised 80% DMEM/F12 and 20% Knockout serum replacement supplemented with 1 mM L-glutamine, 1% nonessential amino acids, 0.1 mM 2-mercaptoethanol and 4 ng/ml bFGF (all from Invitrogen). hESCs were cultured in 6-well plates on a feeder layer of irradiated MEFs, and the medium was refreshed daily. When the cells were nearly confluent, the ES cell colonies were split and passaged by detaching them from the feeder layer with 2 mg/ml dispase (Invitrogen). The colonies were then rinsed off the plates and filtered through a 70 μm cell strainer to remove MEFs. The colonies remained in the strainer. The retained cells were rinsed, pipetted into small pieces, and plated on growth factor-depleted Matrigel™ (BD Biosciences) at a density of 70% to 80% confluence in MEF-conditioned media.\nStage 1. On the day after splitting, differentiation was initiated by replacing the medium with medium containing 100 ng/ml bFGF, 100 ng/ml Activin A and 50 ng/ml BMP4 (FAB) in DMEM/F12 supplemented with 2% BSA, 1 mML-glutamine, 1% nonessential amino acids and 0.1 mM 2-mercaptoethanol for 3 to 4 days. The medium was refreshed daily.\n(§1) Stage 2. FAB-treated cells were detached from the plate with 2 mg/ml dispase and grown in suspension as cell aggregates in MEF-conditioned medium (CM) for 2 days. On the third day, the medium was switched to DMEM/F12 with ITS supplement (BD, 5 μg/ml insulin+5 μg/ml transferrin+5 ng/ml selenous acid) and 50 ng/ml bFGF for 12 days in suspension culture dishes. The medium was refreshed every 2 days.\nStage 3. Cell aggregates were transferred to a 15 ml centrifuge tube and allowed to settle by gravity. The medium was aspirated, and the pellet-containing tube placed on ice. Two milligrams of Matrigel™ were diluted with 3 ml of cold DMEM/F12 added to the pellet at a density of 50 to 100 cell aggregates/ml. One half milliliter of this diluted Matrigel™/cell aggregate mixture was added onto a coverslip previously loaded into wells of a 24-well plate and incubated overnight at 37° C. in 5% CO2.\nNongelled Matrigel™ was aspirated from the wells and ITSFINE medium, a serum-free medium comprised of DMEM/F12 with ITS, 10 ng/ml FGF7 (R&D), 200 nM INGAP (PSN-4765, sequence: IGLHDPSHGTLPNGS), 10 mM nicotinamide (Sigma), 10 nM exendin-4 (Sigma), 4 μg/ml insulin (Gibco) and 2 g/L BSA (Sigma) was added for 21 to 28 days. The medium was refreshed every other day. As an alternative to DMEM/F12 only, DMEM/F12 may be used for the first 14 days of culture followed by 14 days of RPMI1640 as the base medium.\nStage 4. The sphere-structured cell masses were washed and the medium was replaced with RPMI1640 supplemented with 1×B27 (Invitrogen) and 10 mM nicotinamide for 1 to 2 weeks. Alternatively, the sphere-structured cell masses may be dislodged with 2 mg/ml dispase (two hundred microliters of per well of a 24-well plate), rinsed off the plate, and placed in suspension culture dishes in DMEM/F12 supplemented with 1×B27 and 10 mM nicotinamide for 1 to 2 weeks.\nTotal cellular RNA was extracted with Trizol (Invitrogen). cDNA was synthesized from 1 μg total RNA using a SuperScript First-Strand Synthesis kit (Invitrogen). Quantitative real time RT-PCR (QPCR) was performed using Assays-on-demand agents (Applied Biosystems) on an ABI PRISM 7700 Sequence Detection System (Applied Biosystems) for the following transcripts: foxa2, sox17, brachyury, ngn3, pdx1, insulin, glucagon, glut2 and an endogenous control, β-actin (see Table No. 2 for assay numbers). QPCR was performed according to the equipment manufacturer's instructions. Relative quantification was carried out using the comparative cycle threshold (CT) method recommended by the supplier. […]"}, "[2]": {"system": "hESCs", "assay": "Trophoblast differentiation (hCG and CDX2 expression)", "details": "for cdx2 expression at Stage 1: compared to undifferentiated hESCs", "method": "FIG. 3 illustrates how treatment of hESCs with BMP4 and/or bFGF influences cell fate. Cultures of adherent, undifferentiated hESCs grown in MEF-conditioned media were treated for 1, 4, or 7 days and then assayed for human chorionic gonadotropin (hCG) protein expression (a) or hCG transcript accumulation by QPCR (b). For QPCR results, the fold change values and statistical analyses were calculated by comparing treated cells with cells grown to the same time point but without added growth factors (ctrl). B10, 10 ng/ml BMP4; B50, 50 ng/ml BMP4; B100, 100 ng/ml BMP4; B10F, 10 ng/ml BMP4+100 ng/ml bFGF; B50F, 50 ng/ml BMP4+100 ng/ml bFGF; B100F, 100 ng/ml BMP4+100 ng/ml bFGF. *, p<0.05; **, p<0.01.\nFIG. 4 illustrates the expression of cdx2 transcript at Stage 1. Fold change values compared to undifferentiated hESCs are shown. […] CM, conditioned media; F, bFGF; A, Activin A; B, BMP4; inhib, SB431542 Activin signaling inhibitor; D/F, DMEM/F12; I, insulin. See Materials and Methods for growth factor concentrations.\n(§2) Total cellular RNA was extracted with Trizol (Invitrogen). cDNA was synthesized from 1 μg total RNA using a SuperScript First-Strand Synthesis kit (Invitrogen). Quantitative real time RT-PCR (QPCR) was performed using Assays-on-demand agents (Applied Biosystems) on an ABI PRISM 7700 Sequence Detection System (Applied Biosystems) for the following transcripts: foxa2, sox17, brachyury, ngn3, pdx1, insulin, glucagon, glut2 and an endogenous control, β-actin (see Table No. 2 for assay numbers). QPCR was performed according to the equipment manufacturer's instructions. Relative quantification was carried out using the comparative cycle threshold (CT) method recommended by the supplier. Fold change was calculated as: 2^−ΔΔCT. Mean ΔΔCT values from QPCR analyses were compared using the unpaired, two-tailed Student's t-test. P values <0.05 were considered significant."}, "[3]": {"system": "hESC", "assay": "Q-PCR CTs of pancreas-associated transcripts in BMP4-treated, differentiated hESC", "method": "as §2"}, "[4]": {"system": "hESCs", "assay": "Embryoid body formation and pancreatic differentiation in suspension culture", "method": "as §1"}}, "data": [{"molecule": "NC(=O)c1ccc(-c2nc(-c3ccc4c(c3)OCO4)c(-c3ccccn3)[nH]2)cc1", "note": "[SB431542, reference compound]", "values": [{"measurement": "expression of gsc, Mixl1, Brachyury and FOXA2", "setting": "[1]; added to cells treated with bFGF+BMP4 in CM", "value": "completely inhibited expression"}]}, {"molecule": "insulin: a PI3K agonist, component of serum replacement", "values": [{"measurement": "induction of Brachyury", "setting": "[1]; combined with Activin A", "value": "significantly increased"}, {"measurement": "induction of SOX17", "setting": "[1]; combined with Activin A", "value": "significantly decreased"}]}, {"molecule": "BMP4: bone morphogenetic protein 4, member of the TGFβ superfamily", "values": [{"measurement": "cdx2 expression at Stage 1", "setting": "[2]", "value": "increase in cdx2 expression"}, {"measurement": "trophoblast differentiation (hCG and CDX2 expression)", "setting": "[2]; higher concentrations, alone, 7 days", "value": "high proportion of trophoblast differentiation"}, {"measurement": "endoderm- (sox17, foxa2, pdx1) and pancreas-associated (pdx1, insulin) transcripts in EBs", "setting": "[1]; hESCs grown on MEFs, 50 ng/ml", "value": "increased"}, {"measurement": "Q-PCR CT of Foxa2", "setting": "[3]; EB14", "value": 24.0}, {"measurement": "Q-PCR CT of Glucagon", "setting": "[3]; EB14", "value": 28.7}, {"measurement": "Q-PCR CT of Glut2", "setting": "[3]; EB14", "value": 23.0}, {"measurement": "Q-PCR CT of Insulin", "setting": "[3]; EB14", "value": 34.6}, {"measurement": "Q-PCR CT of Pdx1", "setting": "[3]; EB14", "value": 26.7}, {"measurement": "Q-PCR CT of T", "setting": "[3]; EB14", "value": 25.4}, {"measurement": "Q-PCR CT of β-actin", "setting": "[3]; EB14", "value": 15.0}, {"measurement": "Q-PCR CT of Foxa2", "setting": "[3]; EB14 + 14", "value": 23.1}, {"measurement": "Q-PCR CT of Glucagon", "setting": "[3]; EB14 + 14", "value": 22.0}, {"measurement": "Q-PCR CT of Glut2", "setting": "[3]; EB14 + 14", "value": 22.0}, {"measurement": "Q-PCR CT of Insulin", "setting": "[3]; EB14 + 14", "value": 28.4}, {"measurement": "Q-PCR CT of Pdx1", "setting": "[3]; EB14 + 14", "value": 23.9}, {"measurement": "Q-PCR CT of T", "setting": "[3]; EB14 + 14", "value": 27.9}, {"measurement": "Q-PCR CT of β-actin", "setting": "[3]; EB14 + 14", "value": 14.7}, {"measurement": "Q-PCR CT of Foxa2", "setting": "[3]; EB14 + 21", "value": 23.0}, {"measurement": "Q-PCR CT of Glucagon", "setting": "[3]; EB14 + 21", "value": 21.0}, {"measurement": "Q-PCR CT of Glut2", "setting": "[3]; EB14 + 21", "value": 21.1}, {"measurement": "Q-PCR CT of Insulin", "setting": "[3]; EB14 + 21", "value": 27.8}, {"measurement": "Q-PCR CT of Pdx1", "setting": "[3]; EB14 + 21", "value": 24.3}, {"measurement": "Q-PCR CT of T", "setting": "[3]; EB14 + 21", "value": 28.4}, {"measurement": "Q-PCR CT of β-actin", "setting": "[3]; EB14 + 21", "value": 14.9}, {"measurement": "Q-PCR CT of Foxa2", "setting": "[3]; EB14 + 28", "value": 22.7}, {"measurement": "Q-PCR CT of Glucagon", "setting": "[3]; EB14 + 28", "value": 20.2}, {"measurement": "Q-PCR CT of Glut2", "setting": "[3]; EB14 + 28", "value": 20.4}, {"measurement": "Q-PCR CT of Insulin", "setting": "[3]; EB14 + 28", "value": 26.0}, {"measurement": "Q-PCR CT of Pdx1", "setting": "[3]; EB14 + 28", "value": 23.0}, {"measurement": "Q-PCR CT of T", "setting": "[3]; EB14 + 28", "value": 28.5}, {"measurement": "Q-PCR CT of β-actin", "setting": "[3]; EB14 + 28", "value": 15.4}, {"measurement": "Q-PCR CT of Foxa2", "setting": "[3]; hESC + BMP4", "value": 25.6}, {"measurement": "Q-PCR CT of Glucagon", "setting": "[3]; hESC + BMP4", "value": ">50"}, {"measurement": "Q-PCR CT of Glut2", "setting": "[3]; hESC + BMP4", "value": 32.8}, {"measurement": "Q-PCR CT of Insulin", "setting": "[3]; hESC + BMP4", "value": ">50"}, {"measurement": "Q-PCR CT of Pdx1", "setting": "[3]; hESC + BMP4", "value": 36.4}, {"measurement": "Q-PCR CT of T", "setting": "[3]; hESC + BMP4", "value": 25.6}, {"measurement": "Q-PCR CT of β-actin", "setting": "[3]; hESC + BMP4", "value": 15.0}]}, {"molecule": "Activin A: member of the TGF-β superfamily (protein, UniProt P08476 311-426, looked up, Inhibin beta A chain, member of the TGF-β superfamily) Inhibin beta A chain: GLECDGKVNICCKKQFFVSFKDIGWNDWIIAPSGYHANYCEGECPSHIAGTSGSSLSFHSTVINHYRMRGHSPFANLKSCCVPTKLRPMSMLYYDDGQNIIKKDIQNMIVEECGCS", "values": [{"measurement": "cdx2 expression at Stage 1", "setting": "[2]", "value": "essentially eliminates expression of cdx2"}, {"measurement": "induction of MIXL1, GSC, T, SOX17 and FOXA2", "setting": "[1]; CDM, compared to undifferentiated cells in CM", "value": "significant induction"}, {"measurement": "induction of pancreatic cell differentiation", "setting": "[4]; 5, 50 or 100 ng/ml in serum-free medium, treatment alone", "value": "cannot induce pancreatic cell differentiation"}, {"measurement": "EB formation from treated hESCs", "setting": "[4]; Stage 1 treatment in CDM", "value": "failed to develop"}]}, {"molecule": "noggin: a known BMP antagonist (protein, UniProt Q13253 28-232, looked up) Noggin: QHYLHIRPAPSDNLPLVDLIEHPDPIFDPKEKDLNETLLRSLLGGHYDPGFMATSPPEDRPGGGGGAAGGAEDLAELDQLLRQRPSGAMPSEIKGLEFSEGLAQGKKQRLSKKLRRKLQMWLWSQTFCPVLYAWNDLGSRFWPRYVKVGSCFSKRSCSVPEGMVCKPSKSVHLTVLRWRCQRRGGQRCGWIPIQYPIISECKCSC", "values": [{"measurement": "effect of BMP4 on endoderm- and pancreas-associated transcripts", "setting": "[1]; 300 ng/ml, simultaneous incubation with 50 ng/ml BMP4", "value": "eliminated"}, {"measurement": "expression of SOX17, FOXA2, Brachyury and PDX1", "setting": "[1]; added during Stage 1, read at the end of Stage 2", "value": "significantly reduced levels of expression"}]}]}
